As a reminder, the IC50 is the point on the concentration scale where inhibition reaches its midpoint.

Sequence of ALK2 (Q04771 21-509): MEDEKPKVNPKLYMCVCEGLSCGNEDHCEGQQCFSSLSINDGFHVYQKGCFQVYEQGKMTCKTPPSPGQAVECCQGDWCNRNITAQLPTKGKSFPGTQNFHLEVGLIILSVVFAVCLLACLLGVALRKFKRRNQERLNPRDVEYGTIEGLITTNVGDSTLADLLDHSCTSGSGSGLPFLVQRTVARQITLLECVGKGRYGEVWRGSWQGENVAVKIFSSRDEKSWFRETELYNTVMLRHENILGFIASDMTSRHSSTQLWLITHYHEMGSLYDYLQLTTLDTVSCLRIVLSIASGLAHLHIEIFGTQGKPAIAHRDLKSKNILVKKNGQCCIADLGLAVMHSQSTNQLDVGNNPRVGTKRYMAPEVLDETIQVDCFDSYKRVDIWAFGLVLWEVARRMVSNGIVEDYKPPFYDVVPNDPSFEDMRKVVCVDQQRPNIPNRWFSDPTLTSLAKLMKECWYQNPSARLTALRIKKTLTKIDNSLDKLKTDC

The assay concerns the target ALK2 (Homo sapiens (Human), UniProt Q04771). In words: ALK2 inhibition, LanthaScreen Eu Kinase Binding Assay (ThermoFisher Scientific / Life Technologies). Conditions: read-out: Measured Ki (IC50) Value for Compounds: IC50. How it is done: Biochemical assays to measure the inhibitory effects of the compounds were performed by ThermoFisher Scientific (Life Technologies). ALK2 inhibition was tested using LanthaScreen™ Eu Kinase Binding Assay screening protocol.
(In general: In TR-FRET formats the signal depends on donor and acceptor labels being close together.)
With `OC[C@@H]1CCCN1c1nc(Nc2cn(-c3ccc(F)cc3)cn2)c2ccsc2n1` [Compound 60b, (S)-(1-(4-((1-(4-fluorophenyl)-1H-imidazol-4-yl)amino)thieno[2,3-d]pyrimidin-2-yl)pyrrolidin-2-yl)methanol], the IC50 is less than 100 nM.

For `CC(C)(C)CC(=O)N1CCN(c2nc(Nc3cn(-c4ccccc4)cn3)c3ccsc3n2)CC1` [Compound 61b, 3,3-dimethyl-1-(4-(4-((1-phenyl-1H-imidazol-4-yl)amino)thieno[2,3-d]pyrimidin-2-yl)piperazin-1-yl)butan-1-one], the IC50 was less than 100 nM.

For `CCN(CCO)c1nc(Nc2cn(-c3ccccc3)cn2)c2ccsc2n1` [Compound 62b, 2-(ethyl(4-(1-phenyl-1H-imidazol-4-ylamino)thieno[2,3-d]pyrimidin-2-yl)amino)ethanol], the half-inhibitory concentration (IC50) was 100 to 1000 nM.

On to `c1ccc([C@@H]2CCCN2c2nc(Nc3cn(C4CCC4)cn3)c3cccn3n2)cc1` [Compound 63a, (S)—N-(1-cyclobutyl-1H-imidazol-4-yl)-2-(2-phenylpyrrolidin-1-yl)pyrrolo[2,1-f][1,2,4]triazin-4-amine], for which the IC50 was less than 100 nM.

For the compound `c1ccc([C@@H]2CCCN2c2nc(Nc3cn(C4CCC4)cn3)c3cccn3n2)nc1` [Compound 64a, (S)—N-(1-cyclobutyl-1H-imidazol-4-yl)-2-(2-(pyridin-2-yl)pyrrolidin-1-yl)pyrrolo[2,1-f][1,2,4]triazin-4-amine], the 50% inhibitory concentration (IC50) is less than 100 nM.

Turning to `OC[C@@H]1CCCN1c1nc(Nc2cn(-c3ccc4cc[nH]c4c3)cn2)c2cccn2n1` [Compound 65c, (S)-(1-(4-((1-(1H-indol-6-yl)-1H-imidazol-4-yl)amino)pyrrolo[2,1-f][1,2,4]triazin-2-yl)pyrrolidin-2-yl)methanol], the half-maximal inhibitory concentration (IC50) is 100 to 1000 nM.

Regarding `OC[C@@H]1CCCN1c1nc(Nc2cn(-c3ccccn3)cn2)c2cccn2n1` [Compound 66c, (S)-(1-(4-((1-(pyridin-2-yl)-1H-imidazol-4-yl)amino)pyrrolo[2,1-f][1,2,4]triazin-2-yl)pyrrolidin-2-yl)methanol], the half-inhibitory concentration (IC50) was less than 100 nM.

As to `OC[C@@H]1CCCN1c1nc(Nc2cn(-c3ccc4[nH]ccc4c3)cn2)c2cccn2n1` [Compound 67c, (S)-(1-(4-((1-(1H-indol-5-yl)-1H-imidazol-4-yl)amino)pyrrolo[2,1-f][1,2,4]triazin-2-yl)pyrrolidin-2-yl)methanol], the IC50 is less than 100 nM.

For the compound `N#CC1CC(n2cnc(Nc3nc(N4CCC[C@H]4CO)nn4cccc34)c2)C1` (stereo partly drawn) [Compound 68a, (S)-3-(4-((2-(2-(hydroxymethyl)pyrrolidin-1-yl)pyrrolo[2,1-f][1,2,4]triazin-4-yl)amino)-1H-imidazol-1-yl)cyclobutanecarbonitrile], the IC50 was less than 100 nM.

In the case of `c1ccc(C2CCCN2c2nc(Nc3cn(C4CCCC4)cn3)c3cccn3n2)nc1` (centres unmarked) [Compound 69a, N-(1-cyclopentyl-1H-imidazol-4-yl)-2-(2-(pyridin-2-yl)pyrrolidin-1-yl)pyrrolo[2,1-f][1,2,4]triazin-4-amine], the IC50 is less than 100 nM.

With `OCc1cc2c(Nc3cn(-c4ccccc4)cn3)nc(N3CCC[C@H]3CO)nc2s1` [Compound 70f, (S)-(1-(6-(hydroxymethyl)-4-((1-phenyl-1H-imidazol-4-yl)amino)thieno[2,3-d]pyrimidin-2-yl)pyrrolidin-2-yl)methanol], the IC50 is less than 100 nM.

In the case of `OC[C@@H]1CCCN1c1nc(Nc2cn(-c3cc[nH]n3)cn2)c2cccn2n1` [Compound 71c, (S)-(1-(4-((1-(1H-pyrazol-3-yl)-1H-imidazol-4-yl)amino)pyrrolo[2,1-f][1,2,4]triazin-2-yl)pyrrolidin-2-yl)methanol], the IC50 was less than 100 nM.

Regarding `COc1cc(OC)cc(-n2cnc(Nc3nc(N4CCC[C@H]4CO)nn4cccc34)c2)c1` [Compound 72c, (S)-(1-(4-((1-(3,5-dimethoxyphenyl)-1H-imidazol-4-yl)amino)pyrrolo[2,1-f][1,2,4]triazin-2-yl)pyrrolidin-2-yl)methanol], the IC50 is less than 100 nM.

Regarding `COc1ccc(-n2cnc(Nc3nc(N4CCC[C@H]4CO)nn4cccc34)c2)cc1OC` [Compound 73c, (S)-(1-(4-((1-(3,4-dimethoxyphenyl)-1H-imidazol-4-yl)amino)pyrrolo[2,1-f][1,2,4]triazin-2-yl)pyrrolidin-2-yl)methanol], the half-inhibitory concentration (IC50) was less than 100 nM.

On to `c1ccc(C2CCCN2c2nc(Nc3cn(-c4cc[nH]n4)cn3)c3cccn3n2)nc1` (centres unmarked) [Compound 74a, N-(1-(1H-pyrazol-3-yl)-1H-imidazol-4-yl)-2-(2-(pyridin-2-yl)pyrrolidin-1-yl)pyrrolo[2,1-f][1,2,4]triazin-4-amine], for which the half-inhibitory concentration (IC50) was more than 1000 nM.

With `COc1cc(-n2cnc(Nc3nc(N4CCC[C@H]4CO)nc4ccsc34)c2)cc(OC)c1OC` [Compound 75b, (S)-(1-(4-((1-(3,4,5-trimethoxyphenyl)-1H-imidazol-4-yl)amino)thieno[3,2-d]pyrimidin-2-yl)pyrrolidin-2-yl)methanol], the IC50 is less than 100 nM.

Take `OC[C@@H]1CCCN1c1nc(Nc2cn(-c3cccc4ncccc34)cn2)c2cccn2n1` [Compound 76c, (S)-(1-(4-((1-(quinolin-5-yl)-1H-imidazol-4-yl)amino)pyrrolo[2,1-f][1,2,4]triazin-2-yl)pyrrolidin-2-yl)methanol]: the IC50 was less than 100 nM.

With `OCc1cc2nc(N3CCC[C@H]3CO)nc(Nc3cn(-c4ccccc4)cn3)c2s1` [Compound 78f, (S)-(1-(6-(hydroxymethyl)-4-((1-phenyl-1H-imidazol-4-yl)amino)thieno[3,2-d]pyrimidin-2-yl)pyrrolidin-2-yl)methanol], the IC50 was less than 100 nM.

As to `CCCC=Cc1ccc2c(Nc3cn(-c4cc(OC)c(OC)c(OC)c4)cn3)nc(N3CCC[C@H]3CO)nn12` [Compound 79d, (S)-(1-(7-(pent-1-en-1-yl)-4-((1-(3,4,5-trimethoxyphenyl)-1H-imidazol-4-yl)amino)pyrrolo[2,1-f][1,2,4]triazin-2-yl)pyrrolidin-2-yl)methanol], the IC50 is less than 100 nM.

With `CC(C)(C)OC(=O)N1CC=C(c2ccc3c(Nc4cn(-c5ccccc5)cn4)nc(N4CCC[C@H]4CO)nn23)CC1` [Compound 80a, (S)-tert-butyl 4-(2-(2-(hydroxymethyl)pyrrolidin-1-yl)-4-(1-phenyl-1H-imidazol-4-ylamino)pyrrolo[1,2-f][1,2,4]triazin-7-yl)-5,6-dihydropyridine-1(2H)-carboxylate], the IC50 lay in the range of 100 to 1000 nM.

Turning to `Cn1cnc(-n2cnc(Nc3nc(N4CCCC4c4ccccn4)nn4cccc34)c2)c1` (centres unmarked) [Compound 81c, N-(1′-methyl-1′H-[1,4′-biimidazol]-4-yl)-2-(2-(pyridin-2-yl)pyrrolidin-1-yl)pyrrolo[2,1-f][1,2,4]triazin-4-amine], the IC50 is more than 1000 nM.

Regarding `Cn1cnc(-n2cnc(Nc3nc(N4CCC[C@H]4CO)nn4cccc34)c2)c1` [Compound 82a, (S)-(1-(4-((1′-methyl-1′H-[1,4′-biimidazol]-4-yl)amino)pyrrolo[2,1-f][1,2,4]triazin-2-yl)pyrrolidin-2-yl)methanol], the IC50 is less than 100 nM.

Turning to `OC[C@@H]1CCCN1c1cc(F)cc(-n2cnc(Nc3nc(N4CCC[C@H]4CO)nn4cccc34)c2)c1` [Compound 83c, ((S)-1-(4-((1-(3-fluoro-5-((S)-2-(hydroxymethyl)pyrrolidin-1-yl)phenyl)-1H-imidazol-4-yl)amino)pyrrolo[2,1-f][1,2,4]triazin-2-yl)pyrrolidin-2-yl)methanol], the IC50 is less than 100 nM.
